Usually IC50 stands for the concentration that inhibits the measured activity by half.

For test [1], the target named is T1, ROCK2 (Homo sapiens, UniProt O75116).
T1 construct: endogenous in cells; host or cells: HAP1 knockout cells
Nature of the test: Cell-Based Assay, ROCK2 (HAP1 knockout cells, phospho-MYPT1 Thr853 ELISA). The following applies: phospho-MYPT1, 30 μM highest concentration tested, read-out: Results from Cell-Based Assay IC50 (μM) ROCK2. The procedure: Part II—Procedure for Determining ROCK Inhibition Ability of Test Compounds Using a Cell-Base Assay
The Cell-Based Assay for determining ROCK inhibition ability of test compounds utilized a genetically modified HAP1 cell line engineered to eliminate expression of either ROCK1 or ROCK2. In the procedure, HAP1 knockout cells are grown in Iscove's Modified Dulbecco's Medium that is additionally supplemented with 10% fetal bovine and 1x antibiotic-antimycotic mixture. Cells are plated in 96 well tissue culture plates at 1×10^5 cells/well (100 μL, of cells at 1×10^6/mL). Test compounds are solubilized in DMSO and diluted into the same media used to grow the cells. A 100 μL, aliquot of each compound dilution in media is added to each well containing the HAP1 cells and incubated at 37° C. for 30 minutes. Following compound incubation, the cells are pelleted by centrifugation at 1800 rpm for 5 minutes at 4° C. Media is removed from the cell pellet and the cells lysed and de-salted. An 80 μL, aliquot of each cell lysate is added to a single well of a 96-well high binding ELISA plate which has been pre-coated with a MYPT1 capture antibody and incubated at 4° C. overnight. The following day the ELISA plate is washed 4× with 0.05% Tween-20 in PBS. After washing, an anti-phospho-MYPT1 (Thr853) antibody is added and allowed to bind for 1 hour at room temperature. The wash step is repeated, and then an anti-rabbit HRP detection antibody is added and allowed to incubate at room temperature for 1 hour. The wash step is then repeated and 100 μL/well 1-Step™ Ultra TMB substrate is added to the ELISA plate and allowed to develop for approximately 5 minutes. The reaction is stopped by addition of H2SO4. Absorbance is read at 450 OD. Data is analyzed using GraphPad Prism software to calculate the 50% inhibitory concentration of test compound (IC50).
(In general: In an ELISA, binding on a coated surface is turned into a signal by an enzyme label.)

Test [2] has as its target T2, GST-tagged human ROCK2 catalytic domain 1-553 (Homo sapiens, UniProt O75116).
T2 construct: GST-tagged human ROCK2 catalytic domain 1-553 from Carna Biosciences (Cat #01-110); purchased Carna Biosciences 01-110; host or cells: baculovirus expression system
Nature of the test: Isolated Enzyme Assay, ROCK2 (LANCE Ultra ULight-CREBtide FRET). The class given is biochemical. The following applies: 30 μM highest concentration tested, read-out: Results from Isolated Enzyme Assay IC50 (μM) ROCK2. As for the experimental part: (§1) Exemplary compounds were tested for ability to inhibit Rho-associated protein kinase isoform 1 (ROCK1) and Rho-associated protein kinase isoform 2 (ROCK2). Assay procedures and results are described below.
(§2) Part I—Procedure for Determining ROCK Inhibition Ability of Test Compounds Using an Isolated Enzyme Assay
(§3) Protein constructs were purified from a baculovirus expression system. The peptide substrate was fluorescent LANCE® Ultra ULight-CREBtide: […] (PerkinElmer, # TRF0107-D). Kinase reactions were carried out in a 10 μL volume in 384-well plates: 50 nM ULight-CREBtide substrate, 2 nM constitutively active ROCK1 or ROCK2 kinase, and test compound in DMSO (or DMSO only for controls) were diluted into assay buffer containing 50 mM Tris-HCl (pH=7.5), 10 mM MgCl2, 1 mM EGTA, 0.01% Tween-20, and 2 mM DTT such that the final concentration of DMSO was 0.5%. After a 90 minute incubation at room temperature on a shaker table, the kinase reaction was stopped by addition of 10 mM EDTA, and phosphorylation of the substrate was detected by adding 1 nM LANCE® Ultra Europium-anti-phospho-CREB (ser133) antibody (PerkinElmer, # TRF0200-D) and incubating for 60 minutes on a shaker at room temperature. The fluorescence resonance energy transfer (FRET) signals were read and analyzed on an Envision™ 2103 Multilabel Reader (Perkin Elmer). The concentration of test compound required to inhibit substrate phosphorylation by 50% (the IC50) was calculated by non-linear regression using GraphPad PRIZM.
Background: TR-FRET usually uses a lanthanide donor and a delayed reading to cut background.

The target in test [3] is T3, GST-tagged human ROCK1 catalytic domain 1-477 (Homo sapiens, UniProt Q13464).
T3 construct: human ROCK1 catalytic domain 1-477 from Carna Biosciences (cat #01-109); purchased Carna Biosciences 01-109; host or cells: baculovirus expression system
Put plainly: Isolated Enzyme Assay, ROCK1 (LANCE Ultra ULight-CREBtide FRET). The test is classed as biochemical. The following applies: 30 μM highest concentration tested, read-out: Results from Isolated Enzyme Assay IC50 (μM) ROCK1. The procedure: as §1, §2, §3

Like-named read-outs stand apart in the source and are kept apart here.

T2 sequence (O75116 1-553): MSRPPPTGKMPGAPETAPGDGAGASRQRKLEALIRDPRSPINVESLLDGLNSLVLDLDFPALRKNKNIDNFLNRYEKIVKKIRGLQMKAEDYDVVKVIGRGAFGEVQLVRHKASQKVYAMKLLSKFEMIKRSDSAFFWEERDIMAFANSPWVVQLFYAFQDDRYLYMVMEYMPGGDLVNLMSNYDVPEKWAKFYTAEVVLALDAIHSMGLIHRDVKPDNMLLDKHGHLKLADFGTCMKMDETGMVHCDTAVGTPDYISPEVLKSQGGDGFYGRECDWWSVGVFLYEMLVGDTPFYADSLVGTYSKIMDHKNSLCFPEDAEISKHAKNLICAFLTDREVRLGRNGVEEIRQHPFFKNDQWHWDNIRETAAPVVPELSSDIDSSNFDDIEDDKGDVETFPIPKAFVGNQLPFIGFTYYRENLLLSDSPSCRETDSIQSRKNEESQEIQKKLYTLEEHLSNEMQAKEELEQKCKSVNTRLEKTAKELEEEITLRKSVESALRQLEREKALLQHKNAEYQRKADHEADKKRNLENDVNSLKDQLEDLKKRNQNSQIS
T3 sequence (Q13464 1-477): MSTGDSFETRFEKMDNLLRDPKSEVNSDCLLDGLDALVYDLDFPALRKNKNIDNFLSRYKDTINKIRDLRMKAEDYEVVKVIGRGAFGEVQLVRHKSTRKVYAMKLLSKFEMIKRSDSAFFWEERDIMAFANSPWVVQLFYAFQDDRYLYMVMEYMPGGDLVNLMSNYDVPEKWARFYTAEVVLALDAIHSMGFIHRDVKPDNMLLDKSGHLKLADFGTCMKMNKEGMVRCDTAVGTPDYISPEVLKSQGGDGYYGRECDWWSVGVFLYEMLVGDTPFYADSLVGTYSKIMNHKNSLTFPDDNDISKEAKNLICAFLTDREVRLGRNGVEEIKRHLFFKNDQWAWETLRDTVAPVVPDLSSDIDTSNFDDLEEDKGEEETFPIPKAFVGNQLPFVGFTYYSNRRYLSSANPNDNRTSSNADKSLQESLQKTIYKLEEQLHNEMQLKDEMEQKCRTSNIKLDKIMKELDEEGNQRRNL
T1 sequence (O75116 whole entry): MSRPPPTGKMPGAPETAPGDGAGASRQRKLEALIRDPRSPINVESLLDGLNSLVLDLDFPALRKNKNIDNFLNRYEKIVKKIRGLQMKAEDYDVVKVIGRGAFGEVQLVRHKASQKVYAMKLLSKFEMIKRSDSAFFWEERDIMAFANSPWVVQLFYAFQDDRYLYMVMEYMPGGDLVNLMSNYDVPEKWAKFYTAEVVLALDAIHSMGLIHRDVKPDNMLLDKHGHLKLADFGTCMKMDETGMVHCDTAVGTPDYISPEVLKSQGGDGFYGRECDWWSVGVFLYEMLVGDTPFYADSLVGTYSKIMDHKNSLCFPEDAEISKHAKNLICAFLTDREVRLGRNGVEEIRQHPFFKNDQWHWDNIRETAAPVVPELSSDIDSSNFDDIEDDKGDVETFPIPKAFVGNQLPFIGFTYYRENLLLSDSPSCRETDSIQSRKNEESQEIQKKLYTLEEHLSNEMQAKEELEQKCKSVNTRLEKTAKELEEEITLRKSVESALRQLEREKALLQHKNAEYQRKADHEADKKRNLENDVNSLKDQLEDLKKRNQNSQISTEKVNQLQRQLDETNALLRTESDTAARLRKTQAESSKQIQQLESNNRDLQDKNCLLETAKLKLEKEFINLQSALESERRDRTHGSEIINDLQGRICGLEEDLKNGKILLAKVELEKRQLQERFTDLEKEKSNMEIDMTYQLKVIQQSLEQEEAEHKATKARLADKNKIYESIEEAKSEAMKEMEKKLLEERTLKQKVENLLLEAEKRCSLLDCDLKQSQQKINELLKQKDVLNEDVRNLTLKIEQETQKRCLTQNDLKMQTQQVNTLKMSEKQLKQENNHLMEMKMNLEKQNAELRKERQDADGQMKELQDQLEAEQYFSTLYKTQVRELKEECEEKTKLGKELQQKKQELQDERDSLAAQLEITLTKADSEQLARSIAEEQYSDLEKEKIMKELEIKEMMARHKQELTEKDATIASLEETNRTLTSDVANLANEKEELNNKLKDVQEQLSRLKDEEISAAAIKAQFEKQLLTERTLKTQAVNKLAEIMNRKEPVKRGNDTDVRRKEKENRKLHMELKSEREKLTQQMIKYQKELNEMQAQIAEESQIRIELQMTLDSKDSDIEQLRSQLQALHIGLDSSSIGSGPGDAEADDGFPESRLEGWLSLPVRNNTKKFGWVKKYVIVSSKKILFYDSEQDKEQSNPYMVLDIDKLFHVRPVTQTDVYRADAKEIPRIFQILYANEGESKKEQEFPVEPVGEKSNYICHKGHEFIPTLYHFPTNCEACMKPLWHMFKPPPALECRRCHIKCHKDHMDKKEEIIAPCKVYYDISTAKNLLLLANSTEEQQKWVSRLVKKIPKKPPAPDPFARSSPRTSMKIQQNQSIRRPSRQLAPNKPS

As for `Cc1cc(C(=O)Nc2cccc(-c3nsc(Nc4ccc5[nH]ncc5c4Cl)n3)c2)n(C)n1` [Compound A-12], the IC50 in test [1], in test [2] (isolated enzyme) and in test [3] (isolated enzyme) was under 1 µM throughout.

On to `CP(C)(=O)c1cccc(-c2nsc(Nc3ccc4[nH]ncc4c3Cl)n2)c1` [IV-102], for which the IC50 in test [2] (isolated enzyme assay) and in test [3] (isolated enzyme assay) was over 30 µM each time.

In the case of `Cc1n[nH]c2ccc(Nc3nc(-c4cccc(NC(=O)c5ccnn5C)c4)ns3)cc12` [Compound A-8], the IC50 is under 1 µM in test [2] (isolated enzyme) and over 30 µM in test [3] (isolated enzyme).

As for `O=c1ccccn1-c1cccc(-c2nsc(Nc3ccc4[nH]ncc4c3Cl)n2)c1` [IV-53], the IC50 in test [2] (isolated enzyme assay) and in test [3] (isolated enzyme assay) was 1 to 15 µM each time.

As to `O=C(c1cccc(-c2nsc(Nc3ccc4[nH]ncc4c3Cl)n2)c1)N1CCCC1` [IV-86], the half-maximal inhibitory concentration (IC50) in test [2] (isolated enzyme assay) and in test [3] (isolated enzyme assay) was 1 to 15 µM in each case.

On to `O=C(Nc1cc(-c2nsc(Nc3ccc4[nH]ncc4c3Cl)n2)ccn1)c1cocn1` [IV-96], for which the IC50 in test [2] (isolated enzyme assay) and in test [3] (isolated enzyme assay) was over 30 µM in each case.

Consider `Cc1n[nH]c2ccc(Nc3nc(-c4ccnc(NC(=O)c5ccnn5C)c4)ns3)cc12` [Compound A-5], for which the IC50 in test [2] (isolated enzyme) and in test [3] (isolated enzyme) was over 30 µM in each case.

`Cn1nccc1C(=O)NC[C@@H]1CCCN1c1nsc(Nc2ccc3[nH]ncc3c2Cl)n1` [IV-110]: the 50% inhibitory concentration (IC50) was 15 to 30 µM in test [2] (isolated enzyme assay) and over 30 µM in test [3] (isolated enzyme assay).

In the case of `CS(=O)(=O)Nc1cccc(-c2nsc(Nc3ccc4[nH]ncc4c3Cl)n2)c1` [IV-16], the IC50 in test [2] (isolated enzyme assay) was under 1 µM; in test [3] (isolated enzyme assay), 1 to 15 µM.

As to `Cc1cc(=O)n(-c2cc(-c3nsc(Nc4ccc5[nH]ncc5c4Cl)n3)ccn2)n1C` [IV-23], the IC50 in test [2] (isolated enzyme assay) and in test [3] (isolated enzyme assay) was under 1 µM each time.

Consider `NC[C@@H]1CCCN1c1nsc(Nc2ccc3[nH]ncc3c2Cl)n1` [IV-109], for which the figures for the IC50 in test [2] (isolated enzyme assay) and in test [3] (isolated enzyme assay) were over 30 µM and 15 to 30 µM, respectively.

`Cn1cc(-c2nsc(Nc3ccc4[nH]ncc4c3Cl)n2)cc(NC(=O)c2cnccn2)c1=O` [IV-1]: the IC50 in test [2] (isolated enzyme assay) was under 1 µM; in test [3] (isolated enzyme assay) it was over 30 µM.

Regarding `Cn1nccc1C(=O)Nc1cncc(-c2nsc(Nc3ccc4[nH]ncc4c3Cl)n2)c1` [Compound A-6], the IC50 is under 1 µM in test [2] (isolated enzyme) and over 30 µM in test [3] (isolated enzyme).

On to `O=C1CCCN1c1cc(-c2nsc(Nc3ccc4[nH]ncc4c3Cl)n2)ccn1` [IV-52], for which the IC50 in test [2] (isolated enzyme assay) and in test [3] (isolated enzyme assay) was under 1 µM each time.

On to `Cn1cc(-c2nsc(Nc3ccc4[nH]ncc4c3Cl)n2)cc(N2CCOC2=O)c1=O` [IV-4], for which the values for the IC50 in test [2] (isolated enzyme assay) and in test [3] (isolated enzyme assay) were under 1 µM and over 30 µM, respectively.

`Cc1nc(S(=O)(=O)Nc2cccc(-c3nsc(Nc4ccc5[nH]ncc5c4Cl)n3)c2)cn1C` [IV-41]: the IC50 was 1 to 15 µM in test [2] (isolated enzyme assay) and under 1 µM in test [3] (isolated enzyme assay).

Regarding `Cc1c(S(=O)(=O)Nc2cccc(-c3nsc(Nc4ccc5[nH]ncc5c4Cl)n3)c2)cnn1C(F)F` [IV-51], the IC50 was 1 to 15 µM in test [2] (isolated enzyme assay) and 15 to 30 µM in test [3] (isolated enzyme assay).

Take `Cc1nn(C(F)F)cc1S(=O)(=O)Nc1cccc(-c2nsc(Nc3ccc4[nH]ncc4c3Cl)n2)c1` [IV-98]: the IC50 in test [2] (isolated enzyme assay) and in test [3] (isolated enzyme assay) was over 30 µM in each case.

Consider `Cn1cc(-c2nsc(Nc3ccc4[nH]ncc4c3Cl)n2)cc(N2CCCC2=O)c1=O` [IV-11], for which the IC50 in test [2] (isolated enzyme assay) was 1 to 15 µM; in test [3] (isolated enzyme assay), over 30 µM.

Consider `Cc1n[nH]c2ccc(Nc3nc(-c4cncc(NC(=O)c5ccnn5C)c4)ns3)cc12` [Compound A-7], for which the IC50 in test [2] (isolated enzyme) and in test [3] (isolated enzyme) was over 30 µM in each case.

Take `CN(C)C(=O)c1cccc(-c2nsc(Nc3ccc4[nH]ncc4c3Cl)n2)c1` [IV-87]: the figures for the IC50 in test [2] (isolated enzyme assay) and in test [3] (isolated enzyme assay) were 1 to 15 µM and over 30 µM, respectively.

In the case of `O=C(Nc1cccc(-c2nsc(Nc3ccc4[nH]ncc4c3)n2)c1)c1c[nH]cn1` [Compound A-1], the figures for the IC50 in test [2] (isolated enzyme) and in test [3] (isolated enzyme) were under 1 µM and 1 to 15 µM, respectively.

For the compound `O=C(Nc1cncc(-c2nsc(Nc3ccc4[nH]ncc4c3Cl)n2)c1)c1cocn1` [IV-36], the figures for the 50% inhibitory concentration (IC50) in test [2] (isolated enzyme assay) and in test [3] (isolated enzyme assay) were under 1 µM and over 30 µM, respectively.

Consider `Cn1cc(-c2nsc(Nc3ccc4[nH]ncc4c3Cl)n2)cc(C(=O)O)c1=O` [IV-91], for which the IC50 in test [2] (isolated enzyme assay) and in test [3] (isolated enzyme assay) was over 30 µM each time.

For `O=C(c1cccc(-c2nsc(Nc3ccc4[nH]ncc4c3Cl)n2)c1)N1CCc2ccccc2C1` [IV-84], the IC50 in test [2] (isolated enzyme assay) is under 1 µM; in test [3] (isolated enzyme assay), over 30 µM.

For `CN1CCN(C(=O)c2cccc(-c3nsc(Nc4ccc5[nH]ncc5c4Cl)n3)c2)CC1` [IV-85], the IC50 in test [2] (isolated enzyme assay) and in test [3] (isolated enzyme assay) was 1 to 15 µM in each case.

With `CN(C)CCn1cnc2c(-c3nsc(Nc4ccc5[nH]ncc5c4Cl)n3)cccc21` [IV-67], the IC50 in test [2] (isolated enzyme assay) and in test [3] (isolated enzyme assay) was 1 to 15 µM in each case.

Turning to `O=S(=O)(Nc1cccc(-c2nsc(Nc3ccc4[nH]ncc4c3Cl)n2)c1)c1cccnc1` [IV-40], the IC50 is 1 to 15 µM in test [2] (isolated enzyme assay) and over 30 µM in test [3] (isolated enzyme assay).

In the case of `O=C(Nc1cncc(-c2nsc(Nc3ccc4[nH]ncc4c3Cl)n2)c1)c1cncs1` [IV-18], the IC50 was under 1 µM in test [2] (isolated enzyme assay) and over 30 µM in test [3] (isolated enzyme assay).

As to `CC(C)N1CCN(c2cc(-c3nsc(Nc4ccc5[nH]ncc5c4Cl)n3)cn(C)c2=O)C1=O` [IV-3], the IC50 in test [2] (isolated enzyme assay) is under 1 µM; in test [3] (isolated enzyme assay), 1 to 15 µM.

As for `Cc1cc(NC(=O)c2cc(C)nn2C)cc(-c2nsc(Nc3ccc4[nH]ncc4c3Cl)n2)n1` [IV-37], the IC50 is under 1 µM in test [2] (isolated enzyme assay) and over 30 µM in test [3] (isolated enzyme assay).

On to `O=C(Cn1cc(Cl)cn1)Nc1cccc(-c2nsc(Nc3ccc4[nH]ncc4c3Cl)n2)c1` [IV-104], for which the IC50 in test [2] (isolated enzyme assay) and in test [3] (isolated enzyme assay) was over 30 µM throughout.

Take `Cc1coc(-c2cccc(-c3nsc(Nc4cc5cn[nH]c5cc4F)n3)c2)n1` [IV-93]: the IC50 in test [2] (isolated enzyme assay) and in test [3] (isolated enzyme assay) was over 30 µM in each case.

On to `N#Cc1c(Nc2nc(-c3cccc([N+](=O)[O-])c3)ns2)ccc2[nH]ncc12` [IV-100], for which the IC50 in test [2] (isolated enzyme assay) and in test [3] (isolated enzyme assay) was over 30 µM throughout.

Turning to `O=C(Nc1cccc(-c2nsc(Nc3ccc4[nH]ncc4c3)n2)c1)c1cccnc1` [Compound A-2], the IC50 in test [2] (isolated enzyme) is under 1 µM; in test [3] (isolated enzyme), over 30 µM.

In the case of `O=c1c2ccccc2ncn1-c1cccc(-c2nsc(Nc3ccc4[nH]ncc4c3Cl)n2)c1` [IV-95], the IC50 in test [2] (isolated enzyme assay) and in test [3] (isolated enzyme assay) was over 30 µM throughout.

With `O=C1CCCN1c1cc(-c2nsc(Nc3ccc4[nH]ncc4c3Cl)n2)cn2ccnc12` [IV-92], the IC50 in test [2] (isolated enzyme assay) and in test [3] (isolated enzyme assay) was over 30 µM in each case.

In the case of `CS(=O)(=O)c1cccc(-c2nsc(Nc3ccc4[nH]ncc4c3Cl)n2)c1` [IV-99], the half-inhibitory concentration (IC50) in test [2] (isolated enzyme assay) and in test [3] (isolated enzyme assay) was over 30 µM in each case.

In the case of `Cn1nccc1C(=O)NC[C@@H]1CCN(c2nsc(Nc3ccc4[nH]ncc4c3Cl)n2)C1` [IV-94], the IC50 in test [2] (isolated enzyme assay) and in test [3] (isolated enzyme assay) was over 30 µM throughout.

As to `O=C(c1cccc(-c2nsc(Nc3ccc4[nH]ncc4c3Cl)n2)c1)N1CCOCC1` [IV-80], the IC50 in test [2] (isolated enzyme assay) and in test [3] (isolated enzyme assay) was 1 to 15 µM in each case.

Take `Cc1nc2ccccc2c(=O)n1-c1cccc(-c2nsc(Nc3ccc4[nH]ncc4c3Cl)n2)c1` [IV-111]: the IC50 is 1 to 15 µM in test [2] (isolated enzyme assay) and over 30 µM in test [3] (isolated enzyme assay).

The values are drawn from patent US10556898B2, “Indazolyl-1,2,4-thiadiazolamines and related compounds for inhibition of Rho-associated protein kinase and the treatment of disease” (Lycera Corporation, priority 2016, dated 2020).
